Laboratory results published in patent publication US7855165B2, “Herbicide composition for paddy field” (Bayer Cropscience AG, priority 2007, dated 2010).
Like-named read-outs stand apart in the source and are kept apart here.

What was measured:
[1] = tested on: Cyperus serotinus Rottboel; assay: Test Example 1: effect of the herbicide composition against paddy field weeds (pot test, green house); assay type: in vivo; settings: Cyperus serotinus, 504 h, read-out: Herbicidal effect (%) CYPSE
From the text: (§1) • Component (a) (a-1): compound No. 1 (ref: the aforementioned Table A) • (a-2): compound No. 3 (same as above) • (a-3): compound No. 11 (same as above) • Component (b) the aforementioned (b-1)-(b-15) • Component (c) the aforementioned (c-1)-(c-3) <Preparation of Test Agents> • Carrier: Acetone 5 parts by weight • Surfactant: Benzyloxy polyglycol ether 1 part by weight The above-mentioned carrier and surfactant and 1 part by weight of active compounds (component (a) and component (b) or component (c)) are mixed and the obtained formulations are diluted with water to prepare the test agents of the prescribed chemicals amount (preparations).
(§2) In a green house, seeds or tubers of Monochoria vaginalis Presl, annual broad-leaves (Lindernia procumbens Philcox, Rotala indica Koehne, Elatine triandra Schk, Ammannia multiflora Roxb., etc.), Cyperus serotinus Rottboel, and Sagittaria pygmaea Miq were inoculated to paddy field soil filled in a 500 cm^2 pot and brought to a submerged condition of about 2-3 cm. At 1.5-2 leafstage of each weed prescribed diluted solution of preparation of each active compound and each herbicide in the following table was applied on water surface each singly or simultaneously. After the treatment, the submerged condition of 3 cm was maintained and the herbicidal effect was studied 3 weeks after the treatment. The herbicidal effect was evaluated as 100% in case of complete death and 0% in case of no effect.
(§3) In the tables, MOOVP represents Monochoria vaginalis Presl, BBBBB represents annual broad-leaves, CYPSE represents Cyperus serotinus Rottboel and SAGPY represents Sagittaria pygmaea Miq.

[2] = tested on: Monochoria vaginalis Presl; assay: as above; assay type: in vivo; settings: Pontederia vaginalis, 504 h, read-out: Herbicidal effect (%) MOOVP
From the text: as §1, §2, §3

Sagittaria pygmaea Miq = assay: as above; assay type: in vivo; settings: Sagittaria pygmaea, 504 h, read-out: Herbicidal effect (%) SAGPY
From the text: as §1, §2, §3

[3] = as above; assay type: in vivo, annual broad-leaves; settings: 504 h, read-out: Herbicidal effect (%) BBBBB
From the text: as §2, with “At 1.5-2 leafstage of each weed prescribed diluted solution of preparation of each active compound and each herbicide in the following table was applied on water surface each singly or simultaneously.” left out
as §3

[4] = 1.5 g/ha single, 3 weeks after treatment
[5] = 3 g/ha single, 3 weeks after treatment
[6] = 300 g/ha single, 3 weeks after treatment
[7] = 600 g/ha single, 3 weeks after treatment
[8] = 2.5 g/ha single, 3 weeks after treatment
[9] = 5 g/ha single, 3 weeks after treatment
[10] = 20 g/ha single, 3 weeks after treatment
[11] = 40 g/ha single, 3 weeks after treatment
[12] = 50 g/ha single, 3 weeks after treatment
[13] = 100 g/ha single, 3 weeks after treatment
[14] = 75 g/ha single, 3 weeks after treatment
[15] = 150 g/ha single, 3 weeks after treatment
[16] = 125 g/ha single, 3 weeks after treatment
[17] = 250 g/ha single, 3 weeks after treatment

COP(=S)(OC)SCC(=O)N(c1ccc(Cl)cc1)C(C)(C)C [(b-1), anilofos]
pest or weed control at 100 g/ha [1]: 0%
pest or weed control at 200 g/ha [1]: 0%
pest or weed control at 100 g/ha [2]: 10%
pest or weed control at 200 g/ha [2]: 10%
pest or weed control at 100 g/ha (Sagittaria pygmaea Miq): 10%
pest or weed control at 200 g/ha (Sagittaria pygmaea Miq): 10%
pest or weed control at 100 g/ha [3]: 0%
pest or weed control at 200 g/ha [3]: 0%

CCCCOC(=O)[C@@H](C)Oc1ccc(Oc2ccc(C#N)cc2F)cc1 [(b-4), cyhalofop-butyl]
pest or weed control at 90 g/ha [1]: 0%
pest or weed control at 180 g/ha [1]: 0%
pest or weed control at 90 g/ha [2]: 0%
pest or weed control at 180 g/ha [2]: 10%
pest or weed control at 90 g/ha (Sagittaria pygmaea Miq): 10%
pest or weed control at 180 g/ha (Sagittaria pygmaea Miq): 20%
pest or weed control at 90 g/ha [3]: 0%
pest or weed control at 180 g/ha [3]: 0%

CCOc1ccccc1OS(=O)(=O)NC(=O)Nc1nc(OC)cc(OC)n1 [(b-13), ethoxysulfuron]
pest or weed control at 1.5 g/ha [1, 4]: 0%
pest or weed control at 3 g/ha [1, 5]: 0%
pest or weed control at 1.5 g/ha [2, 4]: 65%
pest or weed control at 3 g/ha [2, 5]: 70%
pest or weed control at 1.5 g/ha (Sagittaria pygmaea Miq; [4]): 65%
pest or weed control at 3 g/ha (Sagittaria pygmaea Miq; [5]): 65%
pest or weed control at 1.5 g/ha [3, 4]: 40%
pest or weed control at 3 g/ha [3, 5]: 70%

CCS(=O)(=O)Oc1ccc2c(c1)C(C)(C)CO2 [(b-11), benfuresate]
pest or weed control at 125 g/ha [1]: 20%
pest or weed control at 250 g/ha [1]: 70%
pest or weed control at 125 g/ha [2]: 0%
pest or weed control at 250 g/ha [2]: 0%
pest or weed control at 125 g/ha (Sagittaria pygmaea Miq): 10%
pest or weed control at 250 g/ha (Sagittaria pygmaea Miq): 20%
pest or weed control at 125 g/ha [3]: 0%
pest or weed control at 250 g/ha [3]: 0%

CN(C(=O)COc1nc2ccccc2s1)c1ccccc1 [(b-9), mefenacet]
pest or weed control at 300 g/ha [1, 6]: 30%
pest or weed control at 600 g/ha [1, 7]: 30%
pest or weed control at 300 g/ha [2, 6]: 65%
pest or weed control at 600 g/ha [2, 7]: 80%
pest or weed control at 300 g/ha (Sagittaria pygmaea Miq; [6]): 10%
pest or weed control at 600 g/ha (Sagittaria pygmaea Miq; [7]): 10%
pest or weed control at 300 g/ha [3, 6]: 30%
pest or weed control at 600 g/ha [3, 7]: 40%

COc1cc(OC)nc(Oc2cccc(Oc3nc(OC)cc(OC)n3)c2C(=O)O)n1 [(b-7), bispyribac-sodium]
pest or weed control at 2.5 g/ha [1, 8]: 20%
pest or weed control at 5 g/ha [1, 9]: 60%
pest or weed control at 2.5 g/ha [2, 8]: 0%
pest or weed control at 5 g/ha [2, 9]: 10%
pest or weed control at 2.5 g/ha (Sagittaria pygmaea Miq; [8]): 0%
pest or weed control at 5 g/ha (Sagittaria pygmaea Miq; [9]): 30%
pest or weed control at 2.5 g/ha [3, 8]: 10%
pest or weed control at 5 g/ha [3, 9]: 10%

CC1=C(c2ccccc2)C(=O)N(C(C)(C)c2cc(Cl)cc(Cl)c2)CO1 [(b-10), oxaziclomefone]
pest or weed control at 20 g/ha [1, 10]: 0%
pest or weed control at 40 g/ha [1, 11]: 0%
pest or weed control at 20 g/ha [2, 10]: 10%
pest or weed control at 40 g/ha [2, 11]: 20%
pest or weed control at 20 g/ha (Sagittaria pygmaea Miq; [10]): 0%
pest or weed control at 40 g/ha (Sagittaria pygmaea Miq; [11]): 10%
pest or weed control at 20 g/ha [3]: 40%
pest or weed control at 40 g/ha [3]: 40%

COc1cnc(OC)n2nc(NS(=O)(=O)c3c(OCC(F)F)cccc3C(F)(F)F)nc12 [(b-5), penoxsulam]
pest or weed control at 50 g/ha [1, 12]: 70%
pest or weed control at 100 g/ha [1, 13]: 70%
pest or weed control at 50 g/ha [2, 12]: 75%
pest or weed control at 100 g/ha [2, 13]: 90%
pest or weed control at 50 g/ha (Sagittaria pygmaea Miq; [12]): 65%
pest or weed control at 100 g/ha (Sagittaria pygmaea Miq; [13]): 85%
pest or weed control at 50 g/ha [3, 12]: 50%
pest or weed control at 100 g/ha [3, 13]: 90%

CCN(C(=O)n1nnn(-c2ccccc2Cl)c1=O)C1CCCCC1 [(b-8), fentrazamide]
pest or weed control at 75 g/ha [1, 14]: 30%
pest or weed control at 150 g/ha [1, 15]: 30%
pest or weed control at 75 g/ha [2, 14]: 40%
pest or weed control at 150 g/ha [2, 15]: 60%
pest or weed control at 75 g/ha (Sagittaria pygmaea Miq; [14]): 30%
pest or weed control at 150 g/ha (Sagittaria pygmaea Miq; [15]): 30%
pest or weed control at 75 g/ha [3, 14]: 40%
pest or weed control at 150 g/ha [3, 15]: 70%

CCN(CC)C(=O)n1cnc(S(=O)(=O)c2c(C)cc(C)cc2C)n1 [(b-3), cafenstrole]
pest or weed control at 75 g/ha [1]: 0%
pest or weed control at 150 g/ha [1]: 70%
pest or weed control at 75 g/ha [2]: 50%
pest or weed control at 150 g/ha [2]: 60%
pest or weed control at 75 g/ha (Sagittaria pygmaea Miq): 10%
pest or weed control at 150 g/ha (Sagittaria pygmaea Miq): 10%
pest or weed control at 75 g/ha [3]: 40%
pest or weed control at 150 g/ha [3]: 50%

CCCOCCN(C(=O)CCl)c1c(CC)cccc1CC [(b-2), pretilachlor]
pest or weed control at 125 g/ha [1, 16]: 0%
pest or weed control at 250 g/ha [1, 17]: 0%
pest or weed control at 125 g/ha [2, 16]: 10%
pest or weed control at 250 g/ha [2, 17]: 20%
pest or weed control at 125 g/ha (Sagittaria pygmaea Miq; [16]): 0%
pest or weed control at 250 g/ha (Sagittaria pygmaea Miq; [17]): 10%
pest or weed control at 125 g/ha [3, 16]: 10%
pest or weed control at 250 g/ha [3, 17]: 10%
